The text below walks through data of patent US7371776B2, “Methods and compositions for treating cancer” (Mars, Incorporated, priority 2004, dated 2008).

SMILES strings stand for the structures.

What all share (format): cell-based, human
One experiment has as its system PKC-δ. As to the kind of experiment: Confirmation of LPS results by immunoblotting, MDA MB-231 cells. The note with it: PVDF membranes. On the procedure: The proteins affected by pentamer, as detected by LPS, were analyzed further by immunoblotting. Antibodies against the following proteins were used: Cdc2 (Tyr15), FKHR (Ser256), p53 (Ser37, Ser46 and Ser392), PKC-δ (Ser643), PKC-θ (Ser643/676), pRb (Ser795 and Ser807/811), SAPK/JNK (Thr183/Tyr185) and Stat 5 (Tyr694) (all antibodies were obtained from Cell Signaling).
Protein pellets from pentamer-treated MDA MB-231, MDA MB-468 and MCF-7 cells and corresponding DMSO-treated controls were lysed in PBS with 1% SDS and sonicated for 15 seconds at a power of five watts. Samples were then centrifuged at 10,000 rpm and supernatants transferred into clean tubes. Protein concentration was determined as descried above. Ten jig of each protein sample was separated by PAGE on 4-20% gradient gels (BioRad, Philadelphia, Pa.). Gels were either transferred to PVDF membranes (BioRad) or P-FILM membrane (stacks of 10 membranes) according to the manufacturer's instructions (20/20 Gene Systems). PVDF membranes were blocked for 1 hour in 0.5% casein solution (Vector Laboratories, Burlingame, Calif.), prior to incubation with primary antibodies. […] The membranes were incubated overnight at 4° C. in 1:500 dilutions of primary antibodies, washed three times in TBST for five minutes, incubated in HRP-conjugated secondary antibodies, washed again and incubated in ECL Plus Reagent (Amersham). Signals were visualized on BIOMAX MR film (Kodak, Rochester, N.Y.). Following incubation with primary antibodies, membranes were incubated in anti-GAPDH antibody (1:500 dilution; Chemicon, Temecula, Calif.). The presence of this protein was visualized with secondary antibody conjugated to alkaline phosphatase DuoLux substrate (Vector Laboratories).

Experiment [1] deals with PARP. As to the kind of experiment: PARP cleavage in MCF-7 cells. The settings on record: 48 hours treatment. An excerpt: (§1) Rabbit polyclonal poly (ADP-ribose) polymerase (PARP) (H-250) was obtained from Santa Cruz Biotechnology Inc., (Santa Cruz, Calif.). α-Tubulin antibody was obtained from Neomarkers, Fremont, Calif. All antibodies used for proteomics analysis were obtained from Cell Signaling (Beverly, Mass.), Upstate Biotechnology (Lake Placid, N.Y.), Neomarkers (Fremont, Calif.) and Santa Cruz (Santa Cruz, Calif.) (Table 2). Referring to Table 2, Abs designated as “mouse” were monoclonal Abs, and Abs designated as “rabbit” were polyclonal Abs. The ECL detection reagent was obtained from Amersham (Arlington Heights, Ill.).
(§2) To determine whether depolarization of the mitochondrial membrane, induced by pentamer leads to apoptotic cellular death in human breast cancer cells lines, MDA MB-231 and MCF-7 cells were examined for PARP cleavage products. Since PARP is one of the downstream substrates of the caspase cascade, it is an excellent marker of apoptosis [Soldani, C. et al., Apoptosis, 7: 321-328, 2002].

Experiment [2] deals with PARP. As to the kind of experiment: PARP cleavage in MDA MB-231 cells. The settings on record: 48 hours treatment.
Excerpt: as §1, §2

In the next experiment the test system is p53. As to the kind of experiment: High resolution profiling (P-FILM) of p53 in MDA MB-231 cells. The note with it: 100 μg/mL. On the procedure:
Both p53 and pRb contain multiple phosphorylation sites, and evaluating each site separately provides a more accurate indication of each protein's potential function. Therefore, a high resolution functional profiling of the proteins was performed using P-FILM technology (20/20 Gene Systems, Inc.).
The same protein samples as those used for PDVF membrane blotting were used. Ten μg of each protein sample of MDA MB-231 cells, and in some cases MDA MB-468 and MCF-7 cells, treated with 100 μg /mL of pentamer or DMSO-treated controls, were separated by PAGE on 4-20% gradient gels (BioRad). Proteins were transferred on a stack of ten membranes, according to manufacturer's instructions (20/20 Gene Systems, Inc.). The membranes were probed with antibodies recognizing total and phosphorylated p53 (p53Ser6, Ser9, Ser15, Ser20, Ser37, Ser46 and Ser392) at 1:1000 dilution as recommended by the manufacturer (Cell Signaling). The secondary antibody used in all cases was anti-rabbit polyclonal 1:2000 (Amersham). Signals were visualized on BIOMAX MR film (Kodak). The profiling of pRb was done using anti-phospho pRb (Ser780, Ser 795 and Ser 807/811) and anti-pRb polyclonal antibody (Cell Signaling) at a 1:1000 dilution. The secondary antibody used in all cases was anti-rabbit at 1:2000 dilution (Amersham). Image analysis was performed with Kodak 1D image analysis software. Background corrected intensity values were normalized for loading by using GAPDH intensities. Numerical analysis was performed in Excel.

`Oc1cc(O)c2c(c1)O[C@H](c1ccc(O)c(O)c1)[C@H](O)[C@H]2c1c(O)cc(O)c2c1O[C@H](c1ccc(O)c(O)c1)[C@H](O)[C@H]2c1c(O)cc(O)c2c1O[C@H](c1ccc(O)c(O)c1)[C@H](O)[C@H]2c1c(O)cc(O)c2c1O[C@H](c1ccc(O)c(O)c1)[C@H](O)[C@H]2c1c(O)cc(O)c2c1O[C@H](c1ccc(O)c(O)c1)[C@H](O)C2` [pentamer, pentameric procyanidin]: in the experiment with PKC-δ, the “confirmation of LPS result on PKC-δ by immunoblotting” value is recorded as “not confirmed”. Also, in the experiment on PARP [1], the “cleaved PARP fragment” value was “no cleaved PARP fragment was detected” and the “full-length PARP (116 kDa)” value was “decrease”. Besides, in the experiment with PARP [2], the “main band of PARP (cleavage)” value is “uncleaved”. In the experiment with p53, the “percentage of p53 phosphorylated at Ser392 decreased, compared to untreated controls” value is 53%. In the experiment on p53 (48 h), the “phosphorylation of p53 Ser15 residue” value is “slight decreases” and the “phosphorylation of p53 Ser46” value is listed as “slight decreases”. Besides, in the experiment on p53 (48 hrs), the “phosphorylation of p53 Ser20 residue” value was “decreased”. Further, the “levels of endogenous p53 expression” value with p53 (48 hrs, not significant by densitometry) was “slightly decreased”. In the experiment with p53 (72 hrs), the “phosphorylation of p53 Ser20 residue” value is listed as “not affected”. For the same compound, in the experiment on p53 (both 48 and 72 hrs), the “phosphorylation of p53 Ser392 residue” value was “significant dephosphorylation”.
